Bridge positions count the residues as written; N and C are the ends. Square brackets hold non-standard residues; d marks the D form. Peptide text beside a SMILES is read from it. S5 = C=CCCC[C@](C)(N)C(=O)O; Nle = CCCC[C@H](N)C(=O)O

A short description of data set [1]: Circular dichroism, α-helical content. It counts as physicochemical. Conditions: comparative CD spectra, 20-mer residues 626-645. The procedure, abridged:
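Far-UV CD spectra recorded at 20° C, 190-260 nm, 0.1 cm path, 10 accumulations. Percent α-helicity from mean residue ellipticity at 222 nm: 100×[θ]222/max[θ]222, with max[θ]222=−40,000×[1−(2.5/number of residues)]. Secondary-structure fractions also estimated by CDNN curve-fitting.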
In general terms: Circular dichroism is widely used to follow secondary structure.

In the next data set the test system is HIV syncytia formation. Briefly: HIV syncytial formation assay. The class given is cell-based, HIV-1. The protocol:
Functional assays can be used to evaluate the activity of the antibodies produced. In culture, multinucleated giant cells or “syncytia” form as a result of direct cell-cell fusion between HIV-1-infected and uninfected CD4-positive cells. In the syncytia formation assay, an indicator cell line expressing the CD4 receptor, and a fusogenic cell line that lacks the CD4 receptor but contains HIV-1 proteins on the surface, fuse to generate 70-100 multinucleated giant cells in culture within 48 h. Syncytia are then counted using an inverted microscope. The ability of structured gp41 peptides or antibodies targeted thereto to inhibit syncytia formation in a dose-responsive fashion is used as a functional measure of fusion inhibition, for which IC50s can be determined and compared with peptides T20 and T649, or established neutralization antibodies (Brenner, T. J., et al. The Lancet, 1991. 337(8748): p. 1001-1005; Madani, N., et al., Journal of Virology, 2007. 81(2): p. 532-538).
The truncated Stabilized Alpha Helix (SAH)-gp41 compound, SAH-gp41(626-645)(A), was successfully synthesized in high yield.

A further data set concerns HIV-1 HXBc2. Nature of the data set: HIV infectivity assay, HXBc2 strain. It counts as cell-based. Conditions: compared to T20. From the text:
Also the direct inhibitory activity of modified polypeptides and the antibodies targeted thereto can be quantified based upon their capacity to directly block HIV infection of CD4-positive and CCR5-expressing canine thymus cells. Recombinant HIV-1 viruses (eg. HXBc2, YU2, and additional strains available through the NIH AIDS Research and Reference Reagent Program) expressing firefly luciferase and containing the indicated envelope glycoproteins can be used to infect Cf2Th-CD4-CCR5/CXCR4 cells in the presence of serially diluted modified HIV-1 gp41 polypeptides or antibodies targeted thereto After 48 hours, the cells are lysed and luciferase activity is quantified (Si, Z. H., M. Cayabyab, and J. Sodroski, Journal of Virology, 2001. 75(9): p. 4208-4218 Si, Z. H., et al., PNAS, 2004. 101(14): p. 5036-5041). The identical experiment is performed with the amphotropic murine leukemia virus (AMLV), to monitor for any nonspecific effects of the modified polypeptides or antibodies. Similar control assays may be performed with unmodified or non-HIV polypeptides of the invention or control antibodies and are known in the art. […]

For the compound `CCCC[C@H](NC(C)=O)C(=O)N[C@H](C(=O)N[C@@H](Cc1c[nH]c2ccccc12)C(=O)N[C@@]1(C)CCCC=CCCC[C@@](C)(C(=O)N[C@@H](CCC(=O)O)C(=O)N[C@H](C(=O)N[C@@H](CC(N)=O)C(=O)N[C@@H](CC(N)=O)C(=O)N[C@@H](Cc2ccc(O)cc2)C(=O)N[C@H](C(=O)N[C@@H](CO)C(=O)N[C@@H](CC(C)C)C(=O)N[C@H](C(=O)N[C@@H](Cc2c[nH]cn2)C(=O)N[C@@H](CO)C(=O)N[C@@H](CC(C)C)C(N)=O)[C@@H](C)CC)[C@@H](C)O)[C@@H](C)CC)NC(=O)[C@H](CC(=O)O)NC(=O)[C@H](Cc2c[nH]c3ccccc23)NC(=O)[C@H](CCC(=O)O)NC1=O)[C@@H](C)O` [SAH-gp41(626-645)(A)] (Ac-[Nle]TW[S5]EWD[S5]EINNYTSLIHSL-NH2; staple 4-8; N-terminus assumed), the α-helical content in data set [1] is reported as 48%. In the data set with HIV syncytia formation, the “inhibitory activity in syncytial formation assay, in words” value is listed as “markedly enhanced inhibitory activity”. For the same compound, the “anti-HXBc2 activity, in words” value with HIV-1 HXBc2 was “significant anti-HXBc2 activity”.

For the origin of these results see US10273290B2, “Hydrocarbon double-stapled stabilized HIV-1 GP41 heptad repeat domain peptides” (DANA-FARBER CANCER INSTITUTE, INC., priority 2009, dated 2019).
